This is an account of results in PubChem BioAssay (NCI).

The structures appear in SMILES notation.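 Cells were grown in 96-well plates and exposed to each compound for 48 hours at five concentrations; endpoints were interpolated linearly between bracketing concentrations, or set to the highest concentration if not reached. TGI is the concentration that stops growth completely.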

In one test the test system is M14 melanoma. Put plainly: growth of human tumour cells (NCI), 48 h.
The compound `CSc1nsc(-c2ccccc2)[s+]1` showed a TGI of more than 100 µM.

The next test deals with NCI-H226 lung. Put plainly: growth of human tumour cells (NCI), 48 h.
Regarding `Cc1cn(C2CC(O)C(CO)O2)c(=O)[nH]c1=O` (stereo not given), the TGI was more than 5000 µM.
`CC(=N/N=C/c1ccccn1)/C(C)=N/N=C(C)/C(C)=N/N=C(C)/C(C)=N/N=C(C)/C(C)=N\N=C\c1ccccn1` registered a TGI of more than 100 µM.
Consider `C=CCSc1nnc2cc(CN3CCCC3)c(-c3ccc(Cl)cc3)nn12`, for which the TGI was found to be 26.7 µM.
Compound `CCOC(=O)c1cn2c(nc1=O)N[C@H]1CCCC[C@@H]12` came in with a TGI of more than 100 µM.
Compound `CN(C)c1ccc(C(=N/N=C2\C(=O)Nc3ccccc32)c2ccc(N(C)C)cc2)cc1` came in with a TGI of 43.3 µM.
In turn, `O=C(CC(C(=O)c1ccsc1)c1ccc2c(c1)OCO2)c1ccccc1` (stereo not given) came in with a TGI of more than 100 µM.
On the same count and under the same terms, the result for `CC1(C)CCCC2OC2CCC(C)(C)C1=O` (stereo not given) reads more than 100 µM; that for `CCC1(CC)C(=O)NN(C(=O)c2ccccc2)C1=O`, more than 100 µM; that for `CCOC(=O)C1=C(C)C2C=C(c3cccs3)CC(c3ccc(Cl)cc3)=C2OC1=O` (stereo not given), more than 100 µM.
`COc1cc(/C=C/C(=O)CC(=O)/C=C/c2ccc(OC(=O)CCCCC3CCSS3)c(OC)c2)ccc1OC(=O)CCCCC1CCSS1` (stereo not given) returned a TGI of more than 100 µM.
In turn, `[O-][n+]1ccccc1Sc1nc(Sc2cccc[n+]2[O-])nc(Sc2cccc[n+]2[O-])n1` registered a TGI of 6.78 µM.
Still for that read-out and setting: the result for `CCCCC(C(=O)NCCNC(=O)CCC(=O)N(C)O)C(=O)NCCNC(=O)CCC(=O)N(C)O` reads more than 100 µM; that for `CSc1nsc(-c2ccccc2)[s+]1`, more than 100 µM.

For another test, the system named is NCI-H522 lung. Put plainly: growth of human tumour cells (NCI), 48 h.
With `Cc1cn(C2CC(O)C(CO)O2)c(=O)[nH]c1=O` (stereo not given), the TGI is more than 4240 µM.
`CC(=N/N=C/c1ccccn1)/C(C)=N/N=C(C)/C(C)=N/N=C(C)/C(C)=N/N=C(C)/C(C)=N\N=C\c1ccccn1` returned a TGI of more than 100 µM.
`C=CCSc1nnc2cc(CN3CCCC3)c(-c3ccc(Cl)cc3)nn12` had a TGI of 42.6 µM.
`CCOC(=O)c1cn2c(nc1=O)N[C@H]1CCCC[C@@H]12` returned a TGI of more than 100 µM.
On the same count and under the same terms, under `CN(C)c1ccc(C(=N/N=C2\C(=O)Nc3ccccc32)c2ccc(N(C)C)cc2)cc1` stands 0.649 µM; under `O=C(CC(C(=O)c1ccsc1)c1ccc2c(c1)OCO2)c1ccccc1` (stereo not given), more than 100 µM; under `CC1(C)CCCC2OC2CCC(C)(C)C1=O` (stereo not given), more than 100 µM.
Same read-out and setting: under `CCC1(CC)C(=O)NN(C(=O)c2ccccc2)C1=O` stands more than 100 µM; under `CCOC(=O)C1=C(C)C2C=C(c3cccs3)CC(c3ccc(Cl)cc3)=C2OC1=O` (stereo not given), more than 100 µM.
The same measure, in the same setting: the result for `COc1cc(/C=C/C(=O)CC(=O)/C=C/c2ccc(OC(=O)CCCCC3CCSS3)c(OC)c2)ccc1OC(=O)CCCCC1CCSS1` (stereo not given) reads more than 100 µM; that for `[O-][n+]1ccccc1Sc1nc(Sc2cccc[n+]2[O-])nc(Sc2cccc[n+]2[O-])n1`, 2.23 µM; that for `CCCCC(C(=O)NCCNC(=O)CCC(=O)N(C)O)C(=O)NCCNC(=O)CCC(=O)N(C)O`, more than 100 µM.
For `CSc1nsc(-c2ccccc2)[s+]1`, the TGI is more than 100 µM.

For another test, the system named is SK-OV-3 ovarian. Put plainly: growth of human tumour cells (NCI), 48 h.
`Cc1cn(C2CC(O)C(CO)O2)c(=O)[nH]c1=O` (stereo not given) yielded a TGI of more than 4890 µM.
Same read-out and setting: the result for `CC(=N/N=C/c1ccccn1)/C(C)=N/N=C(C)/C(C)=N/N=C(C)/C(C)=N/N=C(C)/C(C)=N\N=C\c1ccccn1` reads more than 100 µM.
The same measure, in the same setting: the result for `C=CCSc1nnc2cc(CN3CCCC3)c(-c3ccc(Cl)cc3)nn12` reads 55.5 µM; that for `CCOC(=O)c1cn2c(nc1=O)N[C@H]1CCCC[C@@H]12`, more than 100 µM.
Regarding `CN(C)c1ccc(C(=N/N=C2\C(=O)Nc3ccccc32)c2ccc(N(C)C)cc2)cc1`, the TGI turned out to be 11.9 µM.
Take `O=C(CC(C(=O)c1ccsc1)c1ccc2c(c1)OCO2)c1ccccc1` (stereo not given): the TGI is more than 100 µM.
For `CC1(C)CCCC2OC2CCC(C)(C)C1=O` (stereo not given), the TGI is more than 100 µM.
On the same count and under the same terms, the result for `CCC1(CC)C(=O)NN(C(=O)c2ccccc2)C1=O` reads more than 100 µM.
In turn, `CCOC(=O)C1=C(C)C2C=C(c3cccs3)CC(c3ccc(Cl)cc3)=C2OC1=O` (stereo not given) returned a TGI of more than 100 µM.
The compound `COc1cc(/C=C/C(=O)CC(=O)/C=C/c2ccc(OC(=O)CCCCC3CCSS3)c(OC)c2)ccc1OC(=O)CCCCC1CCSS1` (stereo not given) displayed a TGI of more than 100 µM.
For `[O-][n+]1ccccc1Sc1nc(Sc2cccc[n+]2[O-])nc(Sc2cccc[n+]2[O-])n1`, the TGI worked out at 18.6 µM.
The same measure, in the same setting: under `CCCCC(C(=O)NCCNC(=O)CCC(=O)N(C)O)C(=O)NCCNC(=O)CCC(=O)N(C)O` stands more than 100 µM; under `CSc1nsc(-c2ccccc2)[s+]1`, more than 100 µM.

The next test has as its system SNB-75 CNS. Put plainly: growth of human tumour cells (NCI), 48 h.
Regarding `Cc1cn(C2CC(O)C(CO)O2)c(=O)[nH]c1=O` (stereo not given), the TGI is more than 4500 µM.
In the case of `CC(=N/N=C/c1ccccn1)/C(C)=N/N=C(C)/C(C)=N/N=C(C)/C(C)=N/N=C(C)/C(C)=N\N=C\c1ccccn1`, the TGI was more than 100 µM.
With `C=CCSc1nnc2cc(CN3CCCC3)c(-c3ccc(Cl)cc3)nn12`, the TGI was 39.2 µM.
Compound `CCOC(=O)c1cn2c(nc1=O)N[C@H]1CCCC[C@@H]12` showed a TGI of more than 100 µM.
In turn, `CN(C)c1ccc(C(=N/N=C2\C(=O)Nc3ccccc32)c2ccc(N(C)C)cc2)cc1` showed a TGI of 1.21 µM.
The compound `O=C(CC(C(=O)c1ccsc1)c1ccc2c(c1)OCO2)c1ccccc1` (stereo not given) registered a TGI of more than 100 µM.
`CC1(C)CCCC2OC2CCC(C)(C)C1=O` (stereo not given): the TGI is more than 100 µM.
In turn, `CCC1(CC)C(=O)NN(C(=O)c2ccccc2)C1=O` showed a TGI of more than 100 µM.
Take `CCOC(=O)C1=C(C)C2C=C(c3cccs3)CC(c3ccc(Cl)cc3)=C2OC1=O` (stereo not given): the TGI is more than 100 µM.
Regarding `COc1cc(/C=C/C(=O)CC(=O)/C=C/c2ccc(OC(=O)CCCCC3CCSS3)c(OC)c2)ccc1OC(=O)CCCCC1CCSS1` (stereo not given), the TGI was more than 100 µM.
Still for that read-out and setting: under `[O-][n+]1ccccc1Sc1nc(Sc2cccc[n+]2[O-])nc(Sc2cccc[n+]2[O-])n1` stands 18.6 µM; under `CCCCC(C(=O)NCCNC(=O)CCC(=O)N(C)O)C(=O)NCCNC(=O)CCC(=O)N(C)O`, more than 100 µM; under `CSc1nsc(-c2ccccc2)[s+]1`, more than 100 µM.

The next test deals with SNB-78 CNS. The test can be described thus: growth of human tumour cells (NCI), 48 h.
Compound `Cc1cn(C2CC(O)C(CO)O2)c(=O)[nH]c1=O` (stereo not given) showed a TGI of more than 5000 µM.
The compound `CSc1nsc(-c2ccccc2)[s+]1` yielded a TGI of more than 100 µM.
